Results reported in patent US6093744A, “N-acyl sulfamic acid esters useful as hypocholesterolemic agents” (Warner-Lambert Company, priority 1998, dated 2000).
pIC50: −log10 of the molar value. Structures can show the parent of a compound that is named as a salt.

Assays:
[1] = biological target: T1, acyl-CoA: cholesterol acyltransferase (ACAT) (Rattus norvegicus, UniProt Q7TQM4); assay: In vitro inhibition of acylation of cholesterol by oleic acid (LAI), rat liver microsomes; type: biochemical; conditions: radiolabeled oleic acid
T1 construct: tissue preparation containing rat liver microsomes; from tissue; host or cells: rat liver microsomes
T1 sequence (Q7TQM4 1-524): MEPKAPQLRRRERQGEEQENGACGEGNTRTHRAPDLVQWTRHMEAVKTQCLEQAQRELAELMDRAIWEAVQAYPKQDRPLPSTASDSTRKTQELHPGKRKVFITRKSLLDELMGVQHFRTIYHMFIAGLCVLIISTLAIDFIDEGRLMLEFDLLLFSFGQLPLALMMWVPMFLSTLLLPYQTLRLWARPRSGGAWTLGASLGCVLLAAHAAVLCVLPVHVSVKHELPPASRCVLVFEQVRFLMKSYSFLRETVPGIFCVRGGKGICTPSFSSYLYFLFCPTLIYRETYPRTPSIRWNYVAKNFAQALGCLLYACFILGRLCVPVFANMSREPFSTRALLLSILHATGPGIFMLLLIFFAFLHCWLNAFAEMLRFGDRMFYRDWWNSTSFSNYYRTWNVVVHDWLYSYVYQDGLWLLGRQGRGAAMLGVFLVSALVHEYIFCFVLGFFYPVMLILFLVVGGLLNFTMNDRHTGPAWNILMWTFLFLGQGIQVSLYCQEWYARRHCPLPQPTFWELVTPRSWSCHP
Experimental: The ability of representative compounds of the present invention to inhibit ACAT was measured using an in vitro test more fully described in Field F J, Salone R G, Biochemica et Biophysica 1982; 712:557-570. The test assesses the ability of a test compound to inhibit the acylation of cholesterol by oleic acid by measuring the amount of radiolabeled cholesterol oleate formed from radiolabeled oleic acid in a tissue preparation containing rat liver microsomes.

Plasma TC = assay: in vivo screen designated APCC (high fat, high cholesterol diet, plasma cholesterol); design: species or system male Sprague-Dawley rats; conditions: dose 10 mg/kg, rats, PCC diet with 0.5% cholic acid overnight, vehicle CMC/Tween; for change in vivo at 10 mg/kg: Rattus norvegicus
Excerpt: In one in vivo screen designated APCC, male Sprague-Dawley rats (200 to 225 g) were randomly divided into treatment groups and dosed at 4 PM with either vehicle (CMC/Tween) or suspensions of compounds in vehicle. The normal chow diet was then replaced with a high fat, high cholesterol diet (designated PCC) containing 0.5% cholic acid. The rats consumed this diet ad libitum during the night and were sacrificed at 8 AM to obtain blood samples for cholesterol analysis using standard procedures. Statistical differences between mean cholesterol values for the same vehicle were determined using analysis of variance followed by Fisher's least significant test.

Row | Structure (SMILES) | pIC50 [1] | change in vivo at 10 mg/kg (Plasma TC) [%] | APCC % Change in Plasma TC (Plasma TC) [%]
1 | CC(C)c1cc(C(C)C)c(CC(=O)NS(=O)(=O)Oc2c(C(C)C)cc(NC(=O)[C@@H](C)N)cc2C(C)C)c(C(C)C)c1 [Example 11, (D)-[(2,4,6-Triisopropyl-phenyl)-acetyl]-sulfamic acid 4-(2-amino-propionylamino)-2,6-diisopropyl-phenyl ester trifluoroacetate(1:1) (salt)] | < 4.30 | -19 | 
2 | CC(C)c1cc(C(C)C)c(CC(=O)NS(=O)(=O)Oc2c(C(C)C)cc(NC(=O)[C@H](C)N)cc2C(C)C)c(C(C)C)c1 [Example 12, (L)-[(2,4,6-Triisopropyl-phenyl)-acetyl]-sulfamic acid 4-(2-amino-propionylamino)-2,6-diisopropyl-phenyl ester] | < 4.30 | -74 | 
3 | CC(C)c1cc(C(C)C)c(CC(=O)NS(=O)(=O)Oc2c(C(C)C)cc(NC(=O)C(C)(C)N)cc2C(C)C)c(C(C)C)c1 [Example 13, [(2,4,6-Triisopropyl-phenyl)-acetyl]-sulfamic acid 4-(2-amino-2-methyl-propionylamino)-2,6-diisopropyl-phenyl ester] | < 4.30 | -8 | 
4 | CC(C)c1cc(C(C)C)c(CC(=O)NS(=O)(=O)Oc2c(C(C)C)cc(OCCCN(C)C)cc2C(C)C)c(C(C)C)c1 [Example 14, [(2,4,6-Triisopropyl-phenyl)-acetyl]-sulfamic acid 4-(3-dimethylamino-propoxy)-2,6-diisopropyl-phenyl ester] | < 4.30 |  | -11
5 | CC(C)c1cc(C(C)C)c(CC(=O)NS(=O)(=O)Oc2c(C(C)C)cc(OCCCN)cc2C(C)C)c(C(C)C)c1 [Example 16, [(2,4,6-Triisopropyl-phenyl)-acetyl]-sulfamic acid 4-(3-amino-propoxy)-2,6-diisopropyl-phenyl ester hydrochloride salt] | < 4.30 | -47 | 
6 | CC(C)c1cc(C(C)C)c(CC(=O)NS(=O)(=O)Oc2c(C(C)C)cc(SC#N)cc2C(C)C)c(C(C)C)c1 [Example 17, [(2,4,6-Triisopropyl-phenyl)-acetyl]-sulfamic acid 2,6-diisopropyl-4-thiocyanato-phenyl ester] | 4.54 | -46 | 
7 | CC(C)c1cc(C(C)C)c(CC(=O)NS(=O)(=O)Oc2c(C(C)C)cc(C#N)cc2C(C)C)c(C(C)C)c1 [Example 18, [(2,4,6-Triisopropyl-phenyl)-acetyl]-sulfamic acid 4-cyano-2,6-diisopropyl-phenyl ester] | < 4.30 | -38 | 
8 | CC(C)c1cc(C(C)C)c(CC(=O)NS(=O)(=O)Oc2c(C(C)C)cc(CNC(=O)CN)cc2C(C)C)c(C(C)C)c1 [Example 19, [(2,4,6-Triisopropyl-phenyl)-acetyl]-sulfamic acid 4-[(2-amino-acetylamino)-methyl]-2,6-diisopropyl-phenyl ester] | < 4.30 | -16 | 
9 | CC(C)c1cc(C(C)C)c(CC(=O)NS(=O)(=O)Oc2c(C(C)C)cc(C=O)cc2C(C)C)c(C(C)C)c1 [Example 20, [(2,4,6-Triisopropyl-phenyl)-acetyl]-sulfamic acid 4-formyl-2,6-diisopropyl-phenyl ester] | 4.36 | -44 | 
10 | CC(C)c1cc(C(C)C)c(CC(=O)NS(=O)(=O)Oc2c(C(C)C)cc(C=CC#N)cc2C(C)C)c(C(C)C)c1 [Example 21, [(2,4,6-Triisopropyl-phenyl)-acetyl]-sulfamic acid 4-(2-cyano-vinyl)-2,6-diisopropyl-phenyl ester] | 4.35 | -35 | 
11 | CC(C)c1cc(C(C)C)c(CC(=O)NS(=O)(=O)Oc2c(C(C)C)cc(CNCc3ccccc3)cc2C(C)C)c(C(C)C)c1 [Example 22, [(2,4,6-Triisopropyl-phenyl)-acetyl]-sulfamic acid 4-(benzylamino-methyl)-2,6-diisopropyl-phenyl ester mono hydrochloride] | 4.64 | -18 | 
12 | CC(C)c1cc(C(C)C)c(CC(=O)NS(=O)(=O)Oc2c(C(C)C)cc(CN3CCN(C)CC3)cc2C(C)C)c(C(C)C)c1 [Example 23, [(2,4,6-Triisopropyl-phenyl)-acetyl]-sulfamic acid 2,6-diisopropyl-4-(4-methyl-piperazin-1-ylmethyl)-phenyl ester, dihydrochloride] | 4.30 | 5 | 
13 | CC(C)c1cc(C(C)C)c(CC(=O)NS(=O)(=O)Oc2c(C(C)C)cc(C(N)=O)cc2C(C)C)c(C(C)C)c1 [Example 24, [(2,4,6-Triisopropyl-phenyl)-acetyl]-sulfamic acid 4-carbamoyl-2,6-diisopropyl-phenyl ester] | 4.36 | -5 | 
14 | CC(C)c1cc(C(C)C)c(CC(=O)NS(=O)(=O)Oc2c(C(C)C)cc(CO)cc2C(C)C)c(C(C)C)c1 [Example 25, [(2,4,6-Triisopropyl-phenyl)-acetyl]-sulfamic acid 4-hydroxymethyl-2,6-diisopropyl-phenyl ester] | 4.41 | -54 | 
15 | CC(=O)Nc1cc(C(C)C)c(OS(=O)(=O)NC(=O)Cc2c(C(C)C)cc(C(C)C)cc2C(C)C)c(C(C)C)c1 [Example 26] | 4.52 | -44 | 
16 | CC(C)c1cc(C(C)C)c(CC(=O)NS(=O)(=O)Oc2c(C(C)C)cc(N(CCO)CCO)cc2C(C)C)c(C(C)C)c1 [Example 28, [(2,4,6-Triisopropyl-phenyl)-acetyl]-sulfamic acid 4-[bis-(2-hydroxy-ethyl)-amino]-2,6-diisopropyl-phenyl ester] | 4.36 | -48 | 
17 | CC(C)c1cc(C(C)C)c(CC(=O)NS(=O)(=O)Oc2c(C(C)C)cc(NC(=O)Nc3c(C(C)C)cccc3C(C)C)cc2C(C)C)c(C(C)C)c1 [Example 29] | 4.48 | -3 | 
18 | CC(C)c1cc(C(C)C)c(CC(=O)NS(=O)(=O)Oc2c(C(C)C)cc(NC(=O)Nc3ccccc3)cc2C(C)C)c(C(C)C)c1 [Example 30] | 4.69 | -30 | 
19 | CC(C)c1cc(C(C)C)c(CC(=O)NS(=O)(=O)Oc2c(C(C)C)cc(NC(=S)Nc3ccccc3)cc2C(C)C)c(C(C)C)c1 [Example 31] | 4.43 | -21 | 
20 | CC(C)c1cc(C(C)C)c(CC(=O)NS(=O)(=O)Oc2c(C(C)C)cc(NS(=O)(=O)c3cccs3)cc2C(C)C)c(C(C)C)c1 [Example 32, [(2,4,6-Triisopropyl-phenyl)-acetyl]-sulfamic acid 2,6-diisopropyl-4-(thiophene-2-sulfonyamino)-phenyl ester] | 4.51 | -60 | 
21 | CC(C)c1cc(C(C)C)c(CC(=O)NS(=O)(=O)Oc2c(C(C)C)cc(NS(=O)(=O)c3cccc4c(N(C)C)cccc34)cc2C(C)C)c(C(C)C)c1 [Example 33, [(2,4,6-Triisopropyl-phenyl)-acetyl]-sulfamic acid 4-(5 dimethylamino-naphthalene-1-sulfonylamino)-2,6-diisopropyl-phenyl ester] | 4.97 | -61 | 
22 | CC(C)c1cc(C(C)C)c(CC(=O)NS(=O)(=O)Oc2c(C(C)C)cc(NS(C)(=O)=O)cc2C(C)C)c(C(C)C)c1 [Example 34, [(2,4,6-Triisopropyl-phenyl)-acetyl]-sulfamic acid 2,6-diisopropyl-4methanesulfonylamino-phenyl ester] | 4.35 | -13 | 
23 | CCOC(=O)CCCCCc1cc(C(C)C)c(OS(=O)(=O)NC(=O)Cc2c(C(C)C)cc(C(C)C)cc2C(C)C)c(C(C)C)c1 [Example 36, 6-(3,5-Diisopropyl-4-{[(2,4,6-triisopropyl-phenyl)-acetyl]sulfamoyloxy}-phenyl)-hexanoic acid ethyl ester] | 4.72 | -17 | 
24 | CC(C)c1cc(C(C)C)c(CC(=O)NS(=O)(=O)Oc2c(C(C)C)cc(CCCCCC(=O)O)cc2C(C)C)c(C(C)C)c1 [Example 37] | < 4.30 | -47 | 
